Test results from ChEMBL document CHEMBL1201862, “PubChem BioAssay data set” (2004).
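Interpolation was linear, between the two tested concentrations surrounding the appropriate level; five concentrations were tested over 48 hours in 96-well plates. GI50: concentration for 50% inhibition of growth.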 Active and inactive are the calls of the source. Cut-off read from the data, not from the text of the source: active = GI50 up to about 1.1 µM and inactive = higher.

Key:
Test in all cases: growth of human tumour cells (NCI), 48 h
HCC 2998 = test system: HCC 2998
HOP-62 = test system: HOP-62
MOLT-4 = test system: MOLT-4
HCT-15 = test system: HCT-15
SK-MEL-5 = test system: SK-MEL-5
SW-620 = test system: SW-620
KM-20L2 = test system: KM-20L2
SNB-75 = test system: SNB-75
SF-295 = test system: SF-295
HCT-116 = test system: HCT-116
SK-MEL-28 = test system: SK-MEL-28
U-251 = test system: U-251
XF498 = test system: XF498
HT-29 = test system: HT-29
SNB-19 = test system: SNB-19
CCRF-CEM = test system: CCRF-CEM
Malme-3M = test system: Malme-3M
K562 = test system: K562
IGROV-1 = test system: IGROV-1
OVCAR-3 = test system: OVCAR-3
OVCAR-4 = test system: OVCAR-4
KM12 = test system: KM12
M19-MEL = test system: M19-MEL
RPMI-8226 = test system: RPMI-8226
UO-31 = test system: UO-31
SF-539 = test system: SF-539
M14 = test system: M14
EKVX = test system: EKVX
DLD-1 = test system: DLD-1
SK-MEL-2 = test system: SK-MEL-2
786-0 = test system: 786-0
NCI-H522 = test system: NCI-H522
A498 = test system: A498
UACC-257 = test system: UACC-257
UACC-62 = test system: UACC-62
OVCAR-5 = test system: OVCAR-5
OVCAR-8 = test system: OVCAR-8
SK-OV-3 = test system: SK-OV-3
SR = test system: SR
NCI-H226 = test system: NCI-H226
SN12C = test system: SN12C
LXFL 529 = test system: LXFL 529
HOP-92 = test system: HOP-92
LOX IMVI = test system: LOX IMVI
HOP-18 = test system: HOP-18
NCI-H460 = test system: NCI-H460
A549 = test system: A549
COLO 205 = test system: COLO 205
SF-268 = test system: SF-268
RXF 393 = test system: RXF 393
RXF 631 = test system: RXF 631
DMS-273 = test system: DMS-273
HL-60 = test system: HL-60
ACHN = test system: ACHN
NCI-H23 = test system: NCI-H23
TK-10 = test system: TK-10
CAKI-1 = test system: CAKI-1
SNB-78 = test system: SNB-78

`CCOc1ccc(NC(=O)CC2C(=O)Nc3ccccc3[S+]2[O-])cc1` (stereo not drawn) was tested, and the GI50 (HCC 2998) was > 64.7 µM (inactive), the GI50 (HOP-62) was > 100 µM (inactive) and the GI50 (MOLT-4) was > 100 µM (inactive). For the same compound, the GI50 (HCT-15) was over 100 µM, the GI50 (SK-MEL-5) was > 100 µM (inactive) and the GI50 (SW-620) was > 76.6 µM (inactive). For the same compound, the GI50 (KM-20L2) was > 46.5 µM (inactive), the GI50 (SNB-75) was 20.1 µM (inactive) and the GI50 (SF-295) was > 100 µM (inactive). For the same compound, the GI50 (HCT-116) was > 85.3 µM (inactive), the GI50 (SK-MEL-28) was > 100 µM (inactive) and the GI50 (U-251) was 52.4 µM (inactive). For the same compound, the GI50 (XF498) was 38.8 µM (inactive), the GI50 (HT-29) was > 100 µM (inactive) and the GI50 (SNB-19) was 59.6 µM (inactive). For the same compound, the GI50 (CCRF-CEM) was > 100 µM (inactive), the GI50 (Malme-3M) was 98.2 µM (inactive) and the GI50 (K562) was > 100 µM (inactive). For the same compound, the GI50 (IGROV-1) was > 90.6 µM (inactive), the GI50 (OVCAR-3) was > 59.7 µM (inactive) and the GI50 (OVCAR-4) was > 57.1 µM (inactive). For the same compound, the GI50 (KM12) was > 100 µM (inactive), the GI50 (M19-MEL) was > 100 µM (inactive) and the GI50 (RPMI-8226) was > 100 µM (inactive). For the same compound, the GI50 (UO-31) was > 52 µM (inactive), the GI50 (SF-539) was > 67.8 µM (inactive) and the GI50 (M14) was > 100 µM (inactive). The GI50 (EKVX) was > 46.5 µM (inactive), the GI50 (DLD-1) was > 100 µM (inactive) and the GI50 (SK-MEL-2) was > 100 µM (inactive). For the same compound, the GI50 (786-0) was 49.1 µM (inactive), the GI50 (NCI-H522) was > 100 µM (inactive) and the GI50 (A498) was > 64 µM (inactive). For the same compound, the GI50 (UACC-257) was > 100 µM (inactive), the GI50 (UACC-62) was > 46.5 µM (inactive) and the GI50 (OVCAR-5) was > 100 µM (inactive). For the same compound, the GI50 (OVCAR-8) was 57.9 µM (inactive), the GI50 (SK-OV-3) was > 100 µM (inactive) and the GI50 (SR) was 29.5 µM (inactive). For the same compound, the GI50 (NCI-H226) was > 64.7 µM (inactive), the GI50 (SN12C) was > 71 µM (inactive) and the GI50 (LXFL 529) was > 80 µM (inactive). For the same compound, the GI50 (HOP-92) was 23.4 µM (inactive), the GI50 (LOX IMVI) was > 100 µM (inactive) and the GI50 (HOP-18) was > 100 µM (inactive). For the same compound, the GI50 (NCI-H460) was > 80.4 µM (inactive), the GI50 (A549) was > 94 µM (inactive) and the GI50 (COLO 205) was > 100 µM (inactive). For the same compound, the GI50 (SF-268) was 49.7 µM (inactive), the GI50 (RXF 393) was 37.8 µM (inactive) and the GI50 (RXF 631) was > 84.9 µM (inactive). The GI50 (DMS-273) was > 67.1 µM (inactive), the GI50 (HL-60) was > 100 µM (inactive) and the GI50 (ACHN) was > 52.7 µM (inactive). The GI50 (NCI-H23) was > 76.6 µM (inactive), the GI50 (TK-10) was > 71.4 µM (inactive) and the GI50 (CAKI-1) was > 67 µM (inactive). The GI50 (SNB-78) was > 100 µM (inactive).
